Assay results reported in publication PMC12648443, “Modifications of NU-9, a potent protein aggregation inhibitor. Properties and activity in a cellular model of amyotrophic lateral sclerosis” (Bioorganic chemistry, 2025).

How the values were obtained:
Type in all cases: in vitro ADME
[1] = target: T1, BCRP (Homo sapiens, UniProt Q9UNQ0); assay: MDCKII-BCRP bidirectional permeability / efflux assay; conditions: for substrate for the BCRP transporter: based on efflux ratio (> 2.0 = substrate); for Papp A→B at 120 min / Papp B→A at 120 min / efflux ratio at 120 min: dog, MDCKII-BCRP, absence of Ko143
T1 construct: host or cells: MDCKII-BCRP (canine MDR1 knockout, transfected with BCRP)
T1 sequence (Q9UNQ0 1-655): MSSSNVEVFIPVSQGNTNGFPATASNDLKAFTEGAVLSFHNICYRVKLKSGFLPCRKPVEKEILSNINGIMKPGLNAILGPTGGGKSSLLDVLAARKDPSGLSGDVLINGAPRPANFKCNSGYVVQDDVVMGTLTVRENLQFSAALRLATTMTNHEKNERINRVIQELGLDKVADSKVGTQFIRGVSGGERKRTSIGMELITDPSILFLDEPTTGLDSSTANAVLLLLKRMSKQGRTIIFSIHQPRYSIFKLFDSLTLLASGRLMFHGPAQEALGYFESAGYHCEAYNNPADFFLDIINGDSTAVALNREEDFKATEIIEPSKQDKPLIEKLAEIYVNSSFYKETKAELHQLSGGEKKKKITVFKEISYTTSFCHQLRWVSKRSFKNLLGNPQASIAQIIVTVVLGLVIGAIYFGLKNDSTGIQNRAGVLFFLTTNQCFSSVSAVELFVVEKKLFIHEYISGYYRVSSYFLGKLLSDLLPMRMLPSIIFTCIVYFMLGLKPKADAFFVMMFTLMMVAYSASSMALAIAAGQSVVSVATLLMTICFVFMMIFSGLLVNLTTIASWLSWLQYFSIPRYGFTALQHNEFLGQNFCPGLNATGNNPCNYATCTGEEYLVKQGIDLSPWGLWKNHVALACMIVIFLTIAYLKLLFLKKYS
Description: (§1) For each experiment, the apparent permeability (Papp) for each direction and the efflux ratio (ER) were determined by the equations: Papp(cm/s)=(dQ/dt)/A×Co
Where P(B→A) is the apparent permeability of the compounds from the basal to the apical direction and P(A→B) is the apparent permeability from the apical to basal direction. […] The results are presented as an average of two independent experiments.

[2] = target: T2, P-gp (Homo sapiens, UniProt P08183); assay: MDCK-MDR1 bidirectional permeability / efflux assay; conditions: MDCK-MDR1; for Papp A→B at 120 min / Papp B→A at 120 min / efflux ratio at 120 min: dog
T2 construct: host or cells: MDCK-MDR1 (Madin Darby canine kidney cells carrying the MDR1 gene)
T2 sequence (P08183 whole entry): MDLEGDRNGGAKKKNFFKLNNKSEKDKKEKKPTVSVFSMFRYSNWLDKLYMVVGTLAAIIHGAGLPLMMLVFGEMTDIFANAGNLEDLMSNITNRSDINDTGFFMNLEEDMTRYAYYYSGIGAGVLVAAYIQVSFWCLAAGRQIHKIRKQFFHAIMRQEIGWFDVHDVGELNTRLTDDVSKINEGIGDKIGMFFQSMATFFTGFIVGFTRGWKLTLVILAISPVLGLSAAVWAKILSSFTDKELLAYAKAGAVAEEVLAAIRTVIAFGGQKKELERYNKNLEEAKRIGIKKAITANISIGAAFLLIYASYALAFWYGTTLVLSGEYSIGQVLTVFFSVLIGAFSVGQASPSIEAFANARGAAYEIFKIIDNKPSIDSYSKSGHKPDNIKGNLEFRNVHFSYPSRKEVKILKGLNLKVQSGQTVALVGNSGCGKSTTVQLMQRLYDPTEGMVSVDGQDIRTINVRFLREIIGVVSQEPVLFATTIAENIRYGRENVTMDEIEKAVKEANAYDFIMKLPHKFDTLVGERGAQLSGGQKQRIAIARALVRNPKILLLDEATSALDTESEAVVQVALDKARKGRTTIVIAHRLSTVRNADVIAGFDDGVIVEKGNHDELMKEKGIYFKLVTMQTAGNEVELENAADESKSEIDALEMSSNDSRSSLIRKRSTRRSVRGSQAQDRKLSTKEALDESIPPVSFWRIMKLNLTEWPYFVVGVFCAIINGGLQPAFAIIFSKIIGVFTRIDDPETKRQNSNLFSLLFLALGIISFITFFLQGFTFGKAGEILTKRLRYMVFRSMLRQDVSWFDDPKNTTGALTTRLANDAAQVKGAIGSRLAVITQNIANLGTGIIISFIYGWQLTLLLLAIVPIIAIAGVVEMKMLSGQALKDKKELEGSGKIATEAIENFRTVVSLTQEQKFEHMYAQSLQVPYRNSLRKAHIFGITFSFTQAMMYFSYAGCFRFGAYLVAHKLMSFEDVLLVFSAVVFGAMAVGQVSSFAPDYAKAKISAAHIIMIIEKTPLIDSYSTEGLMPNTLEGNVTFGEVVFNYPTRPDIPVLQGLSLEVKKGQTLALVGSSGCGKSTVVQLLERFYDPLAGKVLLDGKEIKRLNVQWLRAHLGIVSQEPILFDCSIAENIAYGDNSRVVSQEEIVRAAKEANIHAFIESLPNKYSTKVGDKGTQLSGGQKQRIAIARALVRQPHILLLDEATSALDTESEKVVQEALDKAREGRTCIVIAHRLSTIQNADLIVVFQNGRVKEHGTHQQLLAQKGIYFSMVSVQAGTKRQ
Description: The assay was carried out at Sai Life Sciences. Stock solutions of 6, 20, assay controls loperamide, atenolol, and propanolol (4 and 20 mM), and P-gp inhibitor zosuquidar (10 mM) were prepared in DMSO. Then the stock solutions from each test compound were diluted in HBSS buffer containing 10 mM HEPES to obtain the assay working solutions without the P-gp inhibitor at 2 and 10 μM (0.1 % DMSO v/v). Into working solutions containing zosuquidar (5 μM) were individually diluted 6, 20, and loperamide to obtain working solutions containing the test compounds at 2 or 10 μM and zosuquidar at 5 μM.
The MDCK-MDR1 (Madin Darby canine kidney - Multidrug Resistance gene-1) cells were cultured in DMEM media supplemented with 10 % FBS and antibiotics. For transport studies, cells were seeded into PET trans filter membranes (Millipore #PSRP010R5; 1.0 μm pore size) at a density of 1.2 × 10^5 cells/well and colchicine was added to the flasks and plates according to their volume. After 24 h, the media were replaced by fresh media and then changed every 2 days over 8 days. The media were removed from the wells of the basal and apical compartments of the plates, and a solution of HBSS with or without zosuquidar (5 μM) was added to the apical (400 μL) and basal (800 μL) sides of the plates. The plates were pre-incubated at 37 °C for 30 min in humidified air with 5 % CO2. The TTER (Transepithelial-Transendothelial Electrical Resistance) value for each well was recorded (assay TEER >83 Ω.cm^2). The buffer was removed from both compartments, and for the apical to basal direction transport determination, the apical compartment was loaded with 400 μL of the working solutions of the tested compounds or controls (2 or 10 μM) in the presence or absence of zosuquidar (5 μM), and the basal compartment was loaded with 800 μL of HBSS (0.1 % DMSO v/v). For the basal to apical direction transport determination, the compartments were loaded in their reverse order. The assay was performed in duplicate for the two transport directions [apical to basolateral (A → B) and basolateral to apical (B → A)]. After 120 min, 100 μL samples from both the apical and basal sides of the plate were transferred to new 96-deep well plates, quenched with acetonitrile containing an internal standard, vortexed for 5 min, and then centrifuged at 4000 rpm for 10 min. The same procedure was used to prepare a 96-deep well plate containing non-assayed working solutions (t = 0 concentrations). After centrifugation, 100 μL of the supernatant of each well was transferred to a new 96-well plate, and the samples were analyzed by LC-MS/MS.
as §1
where dQ/dt is the rate of permeation of the tested compounds across the (0 and 120 min) after correcting for dilution; A is the area of the filter (0.7 cm^2); Co is the initial concentration of the compounds on the donor compartment.
Where P(B→A) is the apparent permeability of the compounds from the basal to the apical direction and P(A→B) is the apparent permeability from the apical to basal direction. Lucifer Yellow was used as a control of the assay to evaluate monolayer integrity after incubation with the working solutions of the compounds, and the results were validated if the permeability of Lucifer Yellow from the apical to the basal side after 1-h incubation was kept <2 %. The results are presented as an average of two independent experiments.

[3] = Microsomal metabolic stability, mouse; conditions: liver microsomes; for microsomal CLint at 1.1 μM: pH 7.4, 0.5 mg/mL; for half-life at 1.1 μM: pH 7.4, read-out: t1/2 (mouse)
Description: (§2) The assay was performed at Jubilant Biosys. Vials containing human or mouse microsomes were collected from the -80 °C freezer and thawed on ice. Then 27.5 μL of the initial microsome solutions (20 mg/mL) were diluted in 971.5 μL of a 67 mM potassium phosphate buffer solution (pH 7.4). The testing compounds were diluted in the buffered microsomal solution to obtain a final concentration of 1.1 μM. Then four different aliquots, each containing 180 μL of the assay solution, representing the samples at T = 0, T = 5, T = 15, and T = 30 min. The samples were pre-incubated at 37 °C for 5 min with gentle shaking, and then 20 μL of a NADPH solution (10 mM) was added to the different solutions of the test compounds. […] An aliquot of the supernatant (200 μL) was collected from each reaction sample and analyzed by LC-MS/MS. The Ln values of the peak area of the compounds to the internal standard over time (min.) were graphed using Excel, and the elimination rates of the compounds (k) were determined from the slopes obtained from the graphs. The k values were used to calculate the compounds half-life using the equation: t1/2=Ln2/k The intrinsic clearance (CLint) of each compound in the presence of mouse and human microsomes was calculated using the equation: […] Verapamil and Ketoconazole were used as controls to evaluate the assay performance. The results are presented as an average of two technical replicates.

[4] = Microsomal metabolic stability, human; conditions: liver microsomes; for microsomal CLint at 1.1 μM: pH 7.4, 0.5 mg/mL; for half-life at 1.1 μM: pH 7.4, read-out: t1/2 (human)
Description: as §2

Row | substrate for the BCRP transporter [1] | Papp A→B at 120 min [1] [×10⁻⁶ cm/s] | Papp B→A at 120 min [1] [×10⁻⁶ cm/s] | efflux ratio at 120 min [1] | substrate for the P-gp transporter [2] | Papp A→B at 120 min [2] [×10⁻⁶ cm/s] | Papp B→A at 120 min [2] [×10⁻⁶ cm/s] | efflux ratio at 120 min [2] | microsomal CLint at 1.1 μM [3] [µL/min/mg] | half-life at 1.1 μM [3] [min] | microsomal CLint at 1.1 μM [4] [µL/min/mg] | half-life at 1.1 μM [4] [min] | Structure (SMILES)
1 | substrates | 0.66 ± 0.18 | 31.5 ± 2.73 | 47.4 | substrates | 10.6 ± 1.28 | 24.31 ± 0.18 | 2.29 | 67.3 ± 0.9 | 20.7 ± 0.3 | 25.8 ± 1.6 | 53.9 ± 3.3 | O=C1CC(=O)CC(/C=C/c2cc(C(F)(F)F)cc(C(F)(F)F)c2)C1 [Compound 6, (E)-5-(3,5-Bis(trifluoromethyl)styryl)cyclohexane-1,3-dione]
2 | substrates | 3.62 ± 0.22 | 19.2 ± 0.88 | 5.32 | substrates | 5.82 ± 0.06 | 14.7 ± 0.78 | 2.53 | 35.7 ± 4.7 | 40.7 ± 3.8 | 10.4 ± 3.1 | > 120 | CC(C)(Oc1cc(C(F)(F)F)cc(C(F)(F)F)c1)C1CC(=O)CC(=O)C1 [Compound 20, 5-(2-(3,5-bis(trifluoromethyl)phenoxy)propan-2-yl)cyclohexane-1,3-dione]
